e = 2'-O-(2-methoxyethyl) (MOE); d = 2'-deoxy (DNA)
Columns and labels:
Format in all cases: cell-based
human p38β mRNA = assay: Inhibition of human p38β mRNA expression in HUVEC cells, Northern blot; conditions: 100 nM oligonucleotide in 10 μg/ml LIPOFECTIN, four hours, Northern blot
Method: The human Jurkat T-cell line (American Type Culture Collection, Manassas, Va.) was maintained in RPMI 1640 growth media supplemented with 10% fetal bovine serum (FBS; Hyclone, Logan, Utah). HUVEC cells (Clonetics, San Diego, Calif.) were cultivated in endothelial basal media supplemented with 10% FBS (Hyclone, Logan, Utah).
HUVEC cells were allowed to reach 75% confluency prior to use. The cells were washed twice with warm (37° C.) OPTI-MEM™ (Life Technologies). The cells were incubated in the presence of the appropriate culture medium, without the growth factors added, and the oligonucleotide formulated in LIPOFECTIN7 (Life Technologies), a 1:1 (w/w) liposome formulation of the cationic lipid N-[1-(2,3-dioleyloxy)propyl]-n,n,n-trimethylammonium chloride (DOTMA), and dioleoyl phosphotidylethanolamine (DOPE) in membrane filtered water. HUVEC cells were treated with 100 nM oligonucleotide in 10 μg/ml LIPOFECTIN7. Treatment was for four hours.
Total mRNA was isolated using the RNEASY7 Mini Kit (Qiagen, Valencia, Calif.; similar kits from other manufacturers may also be used), separated on a 1% agarose gel, transferred to HYBOND™-N+ membrane (Amersham Pharmacia Biotech, Piscataway, N.J.), a positively charged nylon membrane, and probed. p38 MAPK probes were made using the Prime-A-Gene7 kit (Promega Corporation, Madison, Wis.), a random primer labeling kit, using mouse p38α or p38β cDNA as a template. A glyceraldehyde 3-phosphate dehydrogenase (G3PDH) probe was purchased from Clontech (Palo Alto, Calif.), Catalog Number 9805-1. The fragments were purified from low-melting temperature agarose, as described in Maniatis, T., et al., Molecular Cloning: A Laboratory Manual, 1989. The G3PDH probe was labeled with REDIVUE™ ^32P-dCTP (Amersham Pharmacia Biotech, Piscataway, N.J.) and Strip-EZ labelling kit (Ambion, Austin, Tex.). mRNA was quantitated by a PhosphoImager (Molecular Dynamics, Sunnyvale, Calif.).
Every oligonucleotide tested gave at least 50% inhibition.
Oligonucleotides 17893 (SEQ ID NO. 27), 17899 (SEQ ID NO:33), 17904 (SEQ ID NO. 38), and 17907 (SEQ ID NO. 41) were chosen for dose response studies. HUVEC cells were cultured and treated as described in Example 2 except that the oligonucleotide concentration was varied as shown in Table 6. The Lipofectin7/Oligo ratio was maintained at 3 μg Lipofectin7/100 nM oligo, per ml. mRNA was measured by Northern blot as described in Example 2.

mouse p38α mRNA = assay: Mouse p38α mRNA levels in bEND.3 cells, quantitative real-time PCR; parameters: % Inhib. mouse p38α: concentration or dose not given beside the values; conditions: bEND.3 cells, mRNA by quantitative real-time PCR, average of two experiments
From the text: (§1) Quantitation of p38α mRNA levels was accomplished by real-time quantitative PCR using the ABI PRISM™ 7600, 7700, or 7900 Sequence Detection System (PE-Applied Biosystems, Foster City, Calif.) according to manufacturer's instructions. This is a closed-tube, non-gel-based, fluorescence detection system which allows high-throughput quantitation of polymerase chain reaction (PCR) products in real-time. As opposed to standard PCR in which amplification products are quantitated after the PCR is completed, products in real-time quantitative PCR are quantitated as they accumulate. This is accomplished by including in the PCR reaction an oligonucleotide probe that anneals specifically between the forward and reverse PCR primers, and contains two fluorescent dyes. A reporter dye (e.g., FAM or JOE, obtained from either PE-Applied Biosystems, Foster City, Calif., Operon Technologies Inc., Alameda, Calif. or Integrated DNA Technologies Inc., Coralville, Iowa) is attached to the 5′ end of the probe and a quencher dye (e.g., TAMRA, obtained from either PE-Applied Biosystems, Foster City, Calif., Operon Technologies Inc., Alameda, Calif. or Integrated DNA Technologies Inc., Coralville, Iowa) is attached to the 3′ end of the probe. When the probe and dyes are intact, reporter dye emission is quenched by the proximity of the 3′ quencher dye. During amplification, annealing of the probe to the target sequence creates a substrate that can be cleaved by the 5′-exonuclease activity of Taq polymerase. […] With each cycle, additional reporter dye molecules are cleaved from their respective probes, and the fluorescence intensity is monitored at regular intervals by laser optics built into the ABI PRISM™ Sequence Detection System. In each assay, a series of parallel reactions containing serial dilutions of mRNA from untreated control samples generates a standard curve that is used to quantitate the percent inhibition after antisense oligonucleotide treatment of test samples.
(§2) Prior to quantitative PCR analysis, primer-probe sets specific to the target gene being measured are evaluated for their ability to be “multiplexed” with a GAPDH amplification reaction. In multiplexing, both the target gene and the internal standard gene GAPDH are amplified concurrently in a single sample. In this analysis, mRNA isolated from untreated cells is serially diluted. Each dilution is amplified in the presence of primer-probe sets specific for GAPDH only, target gene only (“single-plexing”), or both (multiplexing). Following PCR amplification, standard curves of GAPDH and target mRNA signal as a function of dilution are generated from both the single-plexed and multiplexed samples. If both the slope and correlation coefficient of the GAPDH and target signals generated from the multiplexed samples fall within 10% of their corresponding values generated from the single-plexed samples, the primer-probe set specific for that target is deemed multiplexable. Other methods of PCR are also known in the art.
(§3) PCR reagents were obtained from Invitrogen Corporation, (Carlsbad, Calif.). […] The RT reaction was carried out by incubation for 30 minutes at 48° C. Following a 10 minute incubation at 95° C. to activate the PLATINUM® Taq, 40 cycles of a two-step PCR protocol were carried out: 95° C. for 15 seconds (denaturation) followed by 60° C. for 1.5 minutes (annealing/extension).
(§4) Gene target quantities obtained by real time RT-PCR are normalized using either the expression level of GAPDH, a gene whose expression is constant, or by quantifying total RNA using RiboGreen™ (Molecular Probes, Inc. Eugene, Oreg.). GAPDH expression is quantified by real time RT-PCR, by being run simultaneously with the target, multiplexing, or separately. Total RNA is quantified using RiboGreen™ RNA quantification reagent (Molecular Probes, Inc. Eugene, Oreg.). Methods of RNA quantification by RiboGreen™ are taught in Jones, L. J., et al, (Analytical Biochemistry, 1998, 265, 368-374). […]

rat p38α mRNA = assay: Rat p38α mRNA levels in NR-8383 cells, quantitative real-time PCR; conditions: 300 nM oligonucleotide with FuGENE 6, 24 hours, mRNA by quantitative real-time PCR, average of two experiments
From the text: as §1, §2, §3, §4

Row | Substance | % mRNA EXPRESSION (human p38β mRNA) [%] | % mRNA Inhibition (human p38β mRNA) [%] | % Inhib. mouse p38α (mouse p38α mRNA) [%] | % Inhib. rat p38α (rat p38α mRNA) [%]
1 | ACTTGACGATGTTGTTCAGG (antisense; chemistry not fully specified) [ISIS 17897] | 25 | 75 |  | 
2 | 320130 (antisense AGGACTCCATTTCTTCTTGG; sugars from the 5' end e5 d10 e5, all phosphorothioate, methylation of C not given here) [compound 320130] |  |  | 81 | 61
3 | 320144 (antisense CCTTTTAAGGCACAAACAGA; sugars from the 5' end e5 d10 e5, all phosphorothioate, methylation of C not given here) [compound 320144] |  |  | 83 | 39
4 | 320113 (antisense ATCAATATGGTCTGTACCAG; sugars from the 5' end e5 d10 e5, all phosphorothioate, methylation of C not given here) [compound 320113] |  |  | 35 | 9
5 | 320162 (antisense CGCATTATCTGCTGAAGCTG; sugars from the 5' end e5 d10 e5, all phosphorothioate, methylation of C not given here) [compound 320162] |  |  | 92 | 62
6 | 320117 (antisense GGAGATTTTCTTCAGAAGCT; sugars from the 5' end e5 d10 e5, all phosphorothioate, methylation of C not given here) [compound 320117] |  |  | 72 | 55
7 | 320163 (antisense TGTTAATGAGATAAGCAGGG; sugars from the 5' end e5 d10 e5, all phosphorothioate, methylation of C not given here) [compound 320163] |  |  | 0 | 40
8 | 320156 (antisense GGAATTGGCTTTACACTTTC; sugars from the 5' end e5 d10 e5, all phosphorothioate, methylation of C not given here) [compound 320156] |  |  | 91 | 64
9 | 320161 (antisense GCTGAAGCTGGTTAATATGG; sugars from the 5' end e5 d10 e5, all phosphorothioate, methylation of C not given here) [compound 320161] |  |  | 80 | 66
10 | 320133 (antisense ACTTGAATGGTATTTGGAGA; sugars from the 5' end e5 d10 e5, all phosphorothioate, methylation of C not given here) [compound 320133] |  |  | 52 | 61
11 | 320174 (antisense CCCGCTTGGGCTCCAGTGGC; sugars from the 5' end e5 d10 e5, all phosphorothioate, methylation of C not given here) [compound 320174] |  |  | 62 | 29
12 | 320111 (antisense GTCAACAGCTCAGCCATGAT; sugars from the 5' end e5 d10 e5, all phosphorothioate, methylation of C not given here) [compound 320111] |  |  | 86 | 55
13 | 320148 (antisense CCAGGGCTTCCAGAAGACAG; sugars from the 5' end e5 d10 e5, all phosphorothioate, methylation of C not given here) [compound 320148] |  |  | 78 | 33
14 | 306022 (antisense GGCCAGAGACTGAATGTAGT; sugars from the 5' end e5 d10 e5, all phosphorothioate, methylation of C not given here) [compound 306022] |  |  | 78 | 53
15 | 320109 (antisense GCCCCCATGAGATGGGTCAC; sugars from the 5' end e5 d10 e5, all phosphorothioate, methylation of C not given here) [compound 320109] |  |  | 69 | 34
16 | 320167 (antisense CTTGCCTGTAAAAACACAGA; sugars from the 5' end e5 d10 e5, all phosphorothioate, methylation of C not given here) [compound 320167] |  |  | 7 | 11
17 | 320124 (antisense GGATTGGCACCAATAAATAC; sugars from the 5' end e5 d10 e5, all phosphorothioate, methylation of C not given here) [compound 320124] |  |  | 29 | 31
18 | 320123 (antisense CAATAAATACATTTGCGAAG; sugars from the 5' end e5 d10 e5, all phosphorothioate, methylation of C not given here) [compound 320123] |  |  | 79 | 32
19 | 320103 (antisense AGCTCCTGCCGGTAGAACGT; sugars from the 5' end e5 d10 e5, all phosphorothioate, methylation of C not given here) [compound 320103] |  |  | 81 | 55
20 | 320131 (antisense CTTCCCCTCACAGTGAAGTG; sugars from the 5' end e5 d10 e5, all phosphorothioate, methylation of C not given here) [compound 320131] |  |  | 92 | 39
